Measurements as given in DBAASP.
≈ marks a conversion by molar mass, not a printed value. Where “and” joins values, the source holds several entries; their conditions need not be identical. Equal values may be shown once.

What was measured:
Test in all cases: ≥ marks a high value that may be exact or a test limit, other limits are often not marked, values filed in µg/mL are converted to µM
Pseudomonas aeruginosa = test system: Pseudomonas aeruginosa
[1] = test system: Staphylococcus aureus ATCC 25923
[2] = test system: Acinetobacter baumannii ATCC 19606
[3] = test system: Pseudomonas aeruginosa ATCC 27853
[4] = test system: Escherichia coli ATCC 25922
Bacillus subtilis = test system: Bacillus subtilis
Escherichia coli = test system: Escherichia coli
[5] = test system: Enterococcus faecalis ATCC 29212
[6] = test system: Staphylococcus aureus ATCC 29213

CC[C@H](C)[C@H](NC(=O)[C@H](Cc1ccccc1)NC(=O)[C@H](CO)NC(=O)[C@H](CCCCN)NC(=O)[C@H](Cc1c[nH]c2ccccc12)NC(=O)[C@@H](N)CCCCN)C(=O)N[C@@H](CCCCN)C(=O)N[C@@H](CCCCN)C(=O)N[C@@H](CC(C)C)C(=O)N[C@H](C(=O)N[C@@H](CO)C(=O)N[C@@H](CCCCN)C(=O)N[C@@H](Cc1ccccc1)C(=O)N[C@@H](CC(C)C)C(=O)N[C@@H](Cc1cnc[nH]1)C(=O)N[C@@H](CO)C(=O)N[C@@H](C)C(=O)N[C@@H](CC(=O)O)C(=O)N[C@@H](CCCCN)C(=O)N[C@@H](Cc1ccccc1)C(N)=O)[C@@H](C)O [KWKSFIKKLTSKFLHSADKF]
MIC (Pseudomonas aeruginosa): 10.2 µM (≈ 25 µg/mL)

CC[C@H](C)[C@H](NC(=O)[C@H](Cc1ccccc1)NC(=O)[C@H](CO)NC(=O)[C@H](CCCCN)NC(=O)[C@H](Cc1c[nH]c2ccccc12)NC(=O)[C@@H](N)CCCCN)C(=O)N[C@@H](CCCCN)C(=O)N[C@@H](CCCCN)C(=O)N[C@@H](C)C(=O)N[C@@H](CCCCN)C(=O)N[C@H](C(=O)N[C@@H](CO)C(=O)N[C@@H](Cc1ccccc1)C(=O)N[C@@H](CC(C)C)C(=O)N[C@@H](Cc1cnc[nH]1)C(=O)N[C@@H](CO)C(=O)N[C@@H](C)C(=O)N[C@@H](CCCCN)C(=O)N[C@@H](CCCCN)C(=O)N[C@@H](Cc1ccccc1)C(N)=O)[C@@H](C)O [KWKSFIKKAKTSFLHSAKKF]
MIC (Pseudomonas aeruginosa): 10.4 µM (≈ 25 µg/mL)

CC(C)C[C@H](NC(=O)[C@H](CC(C)C)NC(=O)[C@H](CCCCN)NC(=O)[C@H](CCCCN)NC(=O)[C@H](CC(C)C)NC(=O)[C@H](CCC(N)=O)NC(=O)[C@H](CCCCN)NC(=O)[C@H](CC(C)C)NC(=O)[C@@H](N)Cc1ccccc1)C(N)=O [FLKQLKKLL]
MIC [1]: 113 µM (≈ 128 µg/mL)
MIC [2]: > 113 µM
MIC [3]: 7.08 µM (≈ 7.99 µg/mL)
MIC [4]: 56.6 µM (≈ 63.9 µg/mL)

CC[C@H](C)[C@H](NC(C)=O)C(=O)N[C@@H](CC(N)=O)C(=O)N[C@@H](Cc1c[nH]c2ccccc12)C(=O)N[C@@H](CC(C)C)C(=O)N[C@@H](CCCCN)C(=O)N[C@@H](CC(C)C)C(=O)NCC(=O)N[C@@H](CCCCN)C(=O)N[C@@H](CCCCN)C(=O)N[C@@H](CC(C)C)C(=O)N[C@@H](CC(C)C)C(=O)N[C@@H](CO)C(=O)N[C@@H](C)C(=O)N[C@@H](CC(C)C)C(N)=O [INWLKLGKKLLSAL]
MIC (Bacillus subtilis): 25 µM (≈ 41 µg/mL)
MIC (Escherichia coli): > 100 µM

CC(C)C[C@H](NC(=O)[C@H](CCCCN)NC(=O)CNC(=O)[C@H](CC(C)C)NC(=O)[C@H](CC(C)C)NC(=O)[C@H](C)NC(=O)[C@H](CC(N)=O)NC(=O)[C@H](CC(C)C)NC(=O)[C@H](C)NC(=O)[C@H](CCC(N)=O)NC(=O)CNC(=O)[C@@H](NC(=O)[C@H](Cc1ccccc1)NC(=O)CNC(=O)[C@H](CC(C)C)NC(=O)[C@@H](N)Cc1ccccc1)C(C)C)C(N)=O [FLGFVGQALNALLGKL]
MIC [5]: > 64 µM
MIC [2]: > 64 µM
MIC [4]: > 64 µM
MIC [6]: 32 µM (≈ 53.1 µg/mL)

CC(=O)N[C@@H](CCC(N)=O)C(=O)N[C@@H](C)C(=O)N[C@@H](CCCCN)C(=O)O [QAK]
MIC [4]: 10.9 µM (≈ 4.21 µg/mL)
MIC [6]: 21.7 µM (≈ 8.41 µg/mL)

CC(C)C[C@H](NC(=O)[C@H](Cc1ccc(O)cc1)NC(=O)[C@H](CCCCN)NC(=O)[C@H](Cc1c[nH]c2ccccc12)NC(=O)[C@H](Cc1ccccc1)NC(=O)[C@H](CCCCN)NC(=O)[C@H](CCCN=C(N)N)NC(=O)[C@@H](N)Cc1c[nH]c2ccccc12)C(=O)N[C@@H](CCCCN)C(N)=O [WRKFWKYLK]
MIC [5]: 185 µM and > 92.3 µM
MIC [4]: 22.9 µM (≈ 31 µg/mL)
MIC [6]: 22.9 µM (≈ 31 µg/mL)

CC[C@H](C)[C@H](NC(=O)[C@H](CCCN=C(N)N)NC(=O)[C@H](CCC(N)=O)NC(=O)[C@@H](NC(=O)[C@@H](NC(=O)[C@H](CCCN=C(N)N)NC(=O)[C@H](CCCCN)NC(=O)[C@@H](N)Cc1ccccc1)[C@@H](C)CC)C(C)C)C(=O)N[C@@H](CCCCN)C(=O)N[C@@H](CC(=O)O)C(=O)N[C@@H](Cc1cnc[nH]1)C(=O)N[C@@H](CC(C)C)C(=O)N[C@@H](CCCN=C(N)N)C(=O)O [FKRIVQRIKDHLR]
MIC [4]: 10 µM (≈ 17.1 µg/mL)
MIC [6]: > 40 µM
